USRE38551E1, “Anticonvulsant enantiomeric amino acid derivatives” (priority 1996, dated 2004)

Tests used:
[1] = test system: maximal electroshock (MES) induced seizure; assay: maximal electroshock (MES) seizure test, mice (ip); format: in vivo; settings: for MES, ED50 / PI protective index (TD50/MES ED50): mice; for MES, ED50 / PI protective index (TD50/MES ED50) / ED50: ip; for MES, ED50: at time of peak effect (hours in brackets); for ED50: Mus musculus; for Ratio to MES: i.p., Neurotox/MES (Table 6)
Text: (§1) Compounds were screened for anticonvulsant activity in both male albino Carthworth Farms No. 1 mice (ip route) and male albino Sprague Dawley rats [oral (po) route]. Activity was established using the electrical (maximal electroshock or MES) test. In the MES test, a drop of electrolyte solution with anesthetic (0.5% butacaine hemisulfate in 0.9% sodium chloride) was used in the eyes of the animals prior to positioning the corneal electrodes and delivery of current. […] Protection endpoints were defined as the abolition of the hind limb tonic extensor component of the induced seizure. In mice, effects of compounds on forced spontaneous motor activity were determined using the rotorod test. […] Normally under these conditions, mice maintain their balance almost indefinitely. In rats, motor impairment is assessed by observing for overt evidence of ataxia, abnormal gait and stance, and/or loss of placing response and muscle tone. In the mouse identification screening study all compounds were given at three dose levels (30, 100, 300 mg/kg) and two time periods (0.5 hours, 4 hours). Typically, in the MES seizures test one animal was tested at 30 mg/kg and 300 mg/kg, and three animals at 100 mg/kg. In the rotored toxicity test four animals were tested at 30 mg/kg, and 300 mg/kg, and eight animals at 100 mg/kg.
(§2) The quantitative determination of the median effective (ED50) and toxic doses (TD50) was conducted at previously calculated times of peak effect. Groups of at least eight animals were tested using different doses of test compound until at least two points wee determined between 100 and 0% protection and minimal motor impairment.

[2] = test system: motor impairment (rotorod test); assay: rotorod neurologic toxicity test, mice (ip); format: in vivo; settings: for tox, TD50: mice, ip, rotorod test, at time of peak effect
Text: as §1
as §2, with “impairment. The dose of candidate substance required to produce the defined end-point in 50% of the animals in each test and the 95% confidence interval was calculated.” for “impairment.”

[3] = motor impairment (ataxia, gait, stance) observation, rats (po); format: in vivo; settings: male, Sprague Dawley, in vivo, rat; for TD50: po, at time of peak effect, read-out: tox, TD50
Text: (§3) Compounds were screened for anticonvulsant activity in both male albino Carthworth Farms No. 1 mice (ip route) and male albino Sprague Dawley rats [oral (po) route]. Activity was established using the electrical (maximal electroshock or MES) test. In the MES test, a drop of electrolyte solution with anesthetic (0.5% butacaine hemisulfate in 0.9% sodium chloride) was used in the eyes of the animals prior to positioning the corneal electrodes and delivery of current. A 60 cycle alternating current was administered for 0.2 sec. in both species, 50 mA in mice and 150 mA in rats. Protection endpoints were defined as the abolition of the hind limb tonic extensor component of the induced seizure. In mice, effects of compounds on forced spontaneous motor activity were determined using the rotorod test. […] Normally under these conditions, mice maintain their balance almost indefinitely. In rats, motor impairment is assessed by observing for overt evidence of ataxia, abnormal gait and stance, and/or loss of placing response and muscle tone. In the mouse identification screening study all compounds were given at three dose levels (30, 100, 300 mg/kg) and two time periods (0.5 hours, 4 hours). Typically, in the MES seizures test one animal was tested at 30 mg/kg and 300 mg/kg, and three animals at 100 mg/kg. In the rotored toxicity test four animals were tested at 30 mg/kg, and 300 mg/kg, and eight animals at 100 mg/kg.
as §2, with “impairment. The dose of candidate substance required to produce the defined end-point in 50% of the animals in each test and the 95% confidence interval was calculated.” for “impairment.”

[4] = rotorod neurologic toxicity test, mice (ip); format: in vivo; settings: male, ip; for TD50: Carthworth Farms No. 1, mouse, in vivo, mice, rotorod test, at time of peak effect, read-out: tox, TD50
Text: as §1
as §2, with “impairment. The dose of candidate substance required to produce the defined end-point in 50% of the animals in each test and the 95% confidence interval was calculated.” for “impairment.”

[5] = test system: maximal electroshock (MES) induced seizure; assay: maximal electroshock (MES) seizure test, rats (po); format: in vivo; settings: for ED50 / PI protective index (TD50/MES ED50) / MES, ED50: po; for Ratio to MES: oral, Neurotox/MES (Table 6)
Text: as §1, §2

[6] = test system: motor impairment; assay: motor impairment (ataxia, gait, stance) observation, rats (po); format: in vivo; settings: rat, po, at time of peak effect
Text: as §3
as §2, with “impairment. The dose of candidate substance required to produce the defined end-point in 50% of the animals in each test and the 95% confidence interval was calculated.” for “impairment.”

[7] = test system: liver; assay: liver toxicity evaluation of D-furyl derivative, oral gavage to rats; format: in vivo
Procedure: Compound C, i.e., D-(−)-α-acetamido-N-benzyl-2-furanacetylamide was evaluated for liver toxicity using the procedures described hereinabove. More specifically, various dosages such as 25 mg/kg, 100 mg/kg, 500 mg/kg of the drug was administered by oral gavage to rats for a set period of time. The rats were housed separately. The rats were periodically viewed for mortality and moribundity. At the termination of the study, the surviving rats were anesthetized, and exsanguinated under anesthesia.

[8] = test system: hexobarbital sleep time; assay: hexobarbital sleep time test; format: in vivo; settings: rats, 5 daily doses of 48 mg/kg
Procedure: All rats subjected to the 5-day tolerance studies were maintained in their home cage for 24 hours and then subjected to the hexobarbital sleep time test (day 6). Each rat in each of the 3 groups was given 100 mg/kg of hexobarbital (i.p.) and the sleep time measured to the nearest minute. The mean sleep time and S.E. for each group were calculated.

[9] = test system: liver microsomal system; assay: 7-day liver microsomal studies; format: in vivo, rats
Procedure: Two of the three groups of animals subjected to the hexobarbital sleep time test (chronically treated and vehicle control groups) were continued on their respective original treatment regimen for two days (days 6 and 7) and 24 hours later (day 8) subjected to liver microsomal studies. The rats were decapitated and the livers perfused with 0.9% sodium chloride solution. The livers were removed, weighed, and homogenized in 0.25M sucrose. Microsomes were prepared and their drug metabolizing capabilities (microsomal protein yield; cytochrome P-450 concentration; p-nitroanisole O-demethylase and NADPH cytochrome c reductase activities; norbenzphetamine MI complex formation; and glucuronyl transferase, erythromycin demethylase, and ethylmorphine demethylase activities) measured (Arch. Biochem. Biophys. 143: 318-329, 1971).

[10] = test system: maximal electroshock (MES) induced seizure; assay: 5-day chronic treatment tolerance study (MES test); format: in vivo; settings: rats, 5 daily doses of 48 mg/kg
Procedure: Compound C, i.e., N-acetyl-D, L-phenylglycine N-benzylamide was subjected to 5-day chronic treatment on anticonvulsant activity (maximal electroshock). 3 groups of 8 animals each were treated as follows. One group was given the MES ED50 of the test drug for 5 days; the second group was given the requisite volume of the vehicle (0.04 ml/10 g body wt.) for 4 days and a single dose (MES ED50) of the test drug on day 5; and the third group was given the requisite volume of the vehicle daily for 5 days. At the time of peak effect of the candidate substance on day 5, all groups were subjected to the MES test and the number of animals protected recorded. Seizure components of the unprotected animals were timed to the nearest 10th of a second and the extensor/flexor (E/F) ratio, S.E., and p value determined. Since extensor duration decreases and flexor duration increases as a maximal seizure is attenuated, the E/F ratio provides a measure of seizure severity.

[11] = rat, at time of peak effect, read-out: MES, ED50
[12] = liver microsomes, rats, p.o., 48 mg/kg, Treated 7 Days
[13] = rats, p.o., 48 mg/kg, Treated 7 Days

COC(NC(C)=O)C(=O)NCc1ccccc1 (racemic) [compound 4, D,L-2-Acetamido-N-benzyl-2-methoxyacetamide]
MES, ED50 [1]: 98.30 mg/kg

CC(=O)NC(C(=O)NCc1ccccc1)c1ccco1 (stereo not drawn) [compound 5, (D,L)-α-Acetamido-N-benzyl-2-furanacetamide]
tox, TD50 [2]: ˜40 mg/kg
PI protective index (TD50/MES ED50) [1]: >3.9
MES, ED50 [1]: 10.3 mg/kg

CC(=O)N[C@H](CO)C(=O)NCc1ccccc1 [compound 12, (R)-N-Benzyl 2-Acetamidohydracylamide]
tox, TD50 [2]: >500 [2] mg/kg
PI protective index (TD50/MES ED50) [1]: >9.4
MES, ED50 [1]: 53.4 [2] mg/kg

CC(=O)N[C@H](C(=O)NCc1ccccc1)c1ccco1 [compound 7, (L)-(+)-α-Acetamido-N-benzyl-2-furanacetamide]
tox, TD50 [2]: >200 mg/kg
MES, ED50 [1]: >25. mg/kg

COC[C@H](NC(C)=O)C(=O)NCc1ccccc1 [compound 11, (S)-N-Benzyl 2-Acetamido-3-methoxypropionamide]
TD50 [3]: > 30 mg/kg
TD50 [4]: > 300 mg/kg
ED50 [5, 11]: > 30 mg/kg
ED50 ([1]; read-out: MES, ED50): 100 to 300 mg/kg

COC[C@@H](NC(C)=O)C(=O)NCc1cccc(F)c1 [Ex. 3, R-N-(3-Fluorobenzyl)2-Acetamide-3-Methoxypropionamide]
tox, TD50 [6]: >396 [0.5] mg/kg
tox, TD50 [2]: 46.3 [0.25] mg/kg
PI protective index (TD50/MES ED50) ([5]; rat): >57.7
MES, ED50 ([5]; rat, at time of peak effect): 6.9 [0.5] mg/kg
PI protective index (TD50/MES ED50) [1]: 6.7
MES, ED50 [1]: 6.9 [0.25] mg/kg

COC[C@@H](NC(C)=O)C(=O)NCc1ccc(F)cc1 [Ex. 4, (R)-N-(4-Fluorobenzyl)2-Acetamido-3-Methoxypropanamide]
TD50 [3]: 125 to 250 mg/kg
tox, TD50 [2]: 27.8 [0.25] mg/kg
melting point: 144 to 145 °C
ED50 [5, 11]: 2.6 mg/kg
ED50 ([1]; read-out: MES, ED50): 4.2 mg/kg
PI protective index (TD50/MES ED50) [1]: 6.6

CC(=O)N[C@H](C)C(=O)NCc1ccccc1 [compound 2, N-Acetyl-D-alanine-N′-benzylamide]
tox, TD50 [2]: 2.14 [0.5] mg/kg
PI protective index (TD50/MES ED50) ([5]; rat): >35.2
MES, ED50 ([5]; rat, at time of peak effect): 28.4 [4] mg/kg
PI protective index (TD50/MES ED50) [1]: 3.9
MES, ED50 [1]: 54.8 [0.5] mg/kg

CC(=O)N[C@@H](C)C(=O)NCc1ccccc1 [compound 3, N-Acetyl-L-alanine-N′-benzylamide]
tox, TD50 [2]: 841 [0.5] mg/kg
PI protective index (TD50/MES ED50) [1]: 1.5
MES, ED50 [1]: 548 [0.5] mg/kg

CC(=O)N[C@@H](C(=O)NCc1ccccc1)c1ccco1 [compound 6, (D)-(−)α-Acetamido-N-benzyl-2-furanacetamide]
tox, TD50 [2]: 23.8 mg/kg
MOUSE ED50 Neurotox ([2]; mouse, i.p., rotorod test at peak effect (Table 6)): 23.8 mg/kg
RAT anticonvulsant ED50 MES ([5]; rat, oral (Table 6)): 1.97 mg/kg
Ratio to MES ([5]; rat): 175
Safety Ratio daily dose; MES ([7]; rat, oral, 25 mg/kg/day × 30 days vs oral MES ED50): 12.7
safety ratio for histologic signs of liver toxicity (hepatocellular necrosis) ([7]; rats): 12.7
hepatocellular necrosis ([7]; rats, 100 and 25 mg/kg, treated for 13 weeks): hepatocellular necrosis was evident
PI protective index (TD50/MES ED50) [1]: >.2
MES, ED50 [1]: 3.3 mg/kg
MOUSE anticonvulsant dose ED50 MES ([1]; mouse, i.p. (Table 6)): 3.3 mg/kg
Ratio to MES ([1]; mouse): 7.2

CC(=O)NC(C(=O)NCc1ccccc1)c1ccccc1 (racemic) [compound 13, N-Acetyl-D,L-phenylglycine-N-benzylamide]
ED50 ([3]; oral (Table 6), read-out: RAT ED50 Neurotox): > 1000 mg/kg
TD50 [3]: > 1000 mg/kg
ED50 ([4]; Carthworth Farms No. 1, in vivo, mouse, i.p., rotorod test at peak effect (Table 6), read-out: MOUSE ED50 Neurotox): 96.9 mg/kg
TD50 [4]: 96.9 mg/kg
effect of chronic treatment on hexobarbital sleep time [8]: does not affect
ED50 ([5]; Rattus norvegicus, read-out: RAT anticonvulsant ED50 MES): 48.3 mg/kg
ED50 ([5]; Rattus norvegicus, Rats, p.o., TPE 4 hrs (Table 4 head), read-out: ED50): 48 mg/kg
Ratio to MES ([5]; rat): 20.7
PI protective index (TD50/MES ED50) ([5]; rat): >20.7
ED50 [5, 11]: 48.3 mg/kg
Cytochrome P-450 [9, 12]: 0.71 ± 0.06 nmol/mg
Erythromycin demethylase [9, 12]: 0.64 ± 0.07 nmol/mg/min
Ethylmorphine demethylase [9, 12]: 6.75 ± 0.37 nmol/mg/min
Glucoronyl Transferase [9, 12]: 9.77 ± 0.23 nmol/mg/min
NADPH Cytochrome c reductase [9, 12]: 160.3 ± 5.2 nmol/mg/min
Norbenzphetamine MI Complex [9, 12]: 0.023 ± 0.003 nmol/mg/min
Total Protein [9, 12]: 31.7 ± 1.4 mg
p-nitroanisole O-demethylase [9, 12]: 0.82 ± 0.12 nmol/mg/min
Liver Pathology Report ([9]; rat, oral, 48 mg/kg/day × 7 days): liver enzyme induction
Safety Ratio daily dose; MES ([9]; rat, oral, 48 mg/kg/day × 7 days vs oral MES ED50): −1
induction of liver microsomal enzyme systems ([9]; rats, chronic administration, 48 mg/kg, 7 days): induces some liver microsomal enzyme systems
Body Weight [9, 13]: 146.3 ± 3.8 g
Liver Weight [9, 13]: 8.54 ± 0.26 g
effect of chronic treatment on anticonvulsant activity [10]: does not affect
ED50 ([1]; read-out: MES, ED50): 20.3 mg/kg
ED50 ([1]; read-out: MOUSE anticonvulsant dose ED50 MES): 20.3 mg/kg
PI protective index (TD50/MES ED50) [1]: 4.77
Ratio to MES ([1]; mouse): 4.8

COCC(NC(C)=O)C(=O)NCc1ccccc1 (racemic) [compound 9, N-Benzyl 2-Acetamido-3-methoxypropionamide(racemic mixture)]
tox, TD50 [6]: 386.8 [1] mg/kg

CC(=O)NC(CO)C(=O)NCc1ccccc1 (stereo not shown) [compound 8, N-Benzyl 2-Acetamidohydracrylamide]
TD50 [4]: > 300 mg/kg
melting point: 201 to 203 °C
ED50 ([1]; read-out: MES, ED50): 100 to 300 mg/kg
